Measurements reported in patent US12649751B2 (Arcus Biosciences, Inc., priority 2022, dated 2026).

The compounds below were run against HPK1 (Homo sapiens, UniProt Q92918) (assay: HPK1 Biochemical Assay (ADP-Glo luminescence; low ATP 10 μM or high ATP 200 μM)). Details: 2 nM HPK1, 10 μM ATP; read-out: Biochemical Potency (low ATP).
Procedure: Dose-response assays were performed in Corning® Low Volume 384-well assay plates containing 100 nL of 22 serial 2-fold compound dilutions. Wells containing DMSO alone were used as negative control. A kinase mixture (5 μL) containing 2 nM HPK1 (or 5 nM for high ATP assay) in assay buffer (50 mM Hepes pH 7.4, 10 mM MgCl2, 0.01% Brij-15, 0.01% bovine serum albumin, and 1 mM dithiothreitol) was added to the assay plates and incubated at 25° C. for 1 hour. Wells without HPK1 were used as positive control. A […] of 10 μM ATP (or 200 μM for high ATP) and 0.2 μg/μL […] was then added to the wells, resulting in a 10 μL total reaction volume. Following incubation of the assay plates at 25° C. for 1 hour, 10 μL of ADP-Glo reagent was added to the wells and the plates were incubated at 25° C. for a further 40 minutes (or 1 hour for high ATP assay). Finally, 20 μL of Kinase Detection Reagent was added, and the plates were incubated for another 30 minutes at 25° C. An Envision plate reader was then used to detect the luminescence signals. IC50 values were determined by fitting the data to a standard 4-parameter logistic equation. The results are summarized in the Biochemical Potency columns of Tables 4 and 5 below (Biochemical Potency (high ATP); Biochemical Potency (low ATP)).

HPK1, sequence (Q92918 whole entry, species assumed): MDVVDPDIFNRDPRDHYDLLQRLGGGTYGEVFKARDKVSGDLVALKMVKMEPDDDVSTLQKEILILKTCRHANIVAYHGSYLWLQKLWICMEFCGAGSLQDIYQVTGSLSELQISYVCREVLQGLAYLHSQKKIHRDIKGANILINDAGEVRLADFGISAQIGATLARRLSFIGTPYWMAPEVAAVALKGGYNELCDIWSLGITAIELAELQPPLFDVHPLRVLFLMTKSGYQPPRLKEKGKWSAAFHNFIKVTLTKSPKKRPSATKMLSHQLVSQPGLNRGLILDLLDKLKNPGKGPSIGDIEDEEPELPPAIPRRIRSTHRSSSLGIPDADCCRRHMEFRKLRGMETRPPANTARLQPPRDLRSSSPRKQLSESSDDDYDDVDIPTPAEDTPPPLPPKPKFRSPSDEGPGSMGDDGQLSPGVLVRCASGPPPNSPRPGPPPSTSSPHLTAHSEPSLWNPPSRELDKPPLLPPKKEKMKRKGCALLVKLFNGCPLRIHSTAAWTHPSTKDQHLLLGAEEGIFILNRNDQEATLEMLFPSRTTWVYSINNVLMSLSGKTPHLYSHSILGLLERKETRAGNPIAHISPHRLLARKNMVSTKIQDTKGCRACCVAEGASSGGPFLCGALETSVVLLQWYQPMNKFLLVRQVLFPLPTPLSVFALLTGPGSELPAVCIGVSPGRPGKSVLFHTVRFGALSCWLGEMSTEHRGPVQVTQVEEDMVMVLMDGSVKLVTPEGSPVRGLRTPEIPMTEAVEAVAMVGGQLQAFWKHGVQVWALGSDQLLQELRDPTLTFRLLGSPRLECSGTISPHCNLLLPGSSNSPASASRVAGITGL

IC50, < 100 nM:
Cc1cccnc1-c1nc2cc(Nc3cccc(N4CC5CCC(C4)N5C)n3)ncc2s1 [Example 107, 6-{8-Methyl-3,8-diazabicyclo[3.2.1]octan-3-yl}-N-[2-(3-methylpyridin-2-yl)-[1,3]thiazolo[5,4-c]pyridin-6-yl]pyridin-2-amine]
Cc1cccnc1-c1nc2cc(Nc3cccc(N4C[C@@H]5CCN(C)[C@@H]5C4)n3)ncc2s1 [Example 111, 6-[(3aS,6aS)-1-Methyl-octahydropyrrolo[3,4-b]pyrrol-5-yl]-N-[2-(3-methylpyridin-2-yl)-[1,3]thiazolo[5,4-c]pyridin-6-yl]pyridin-2-amine]
Cc1cccnc1-c1nc2cc(Nc3cccc(N4CCN5CCC[C@H]5C4)n3)ncc2s1 [Example 113, 6-[(8aS)—Octahydropyrrolo[1,2-a]pyrazin-2-yl]-N-[2-(3-methylpyridin-2-yl)-[1,3]thiazolo[5,4-c]pyridin-6-yl]pyridin-2-amine]
Cc1cccnc1-c1nc2cc(Nc3cccc(N4C[C@@H]5C[C@H]4CN5C4CCOCC4)n3)ncc2s1 [Example 117, N-[2-(3-Methylpyridin-2-yl)-[1,3]thiazolo[5,4-c]pyridin-6-yl]-6-[(1S,4S)-5-(oxan-4-yl)-2,5-diazabicyclo[2.2.1]heptan-2-yl]pyridin-2-amine]
COc1ccc(N2C[C@@H]3C[C@H]2CN3C)nc1Nc1cc2nc(-c3ncccc3C)sc2cn1 [Example 118, 3-Methoxy-6-[(1S,4S)-5-methyl-2,5-diazabicyclo[2.2.1]heptan-2 yl]-N-[2-(3-methylpyridin-2-yl)-[1,3]thiazolo[5,4-c]pyridin-6-yl]pyridin-2-amine]
CN1C[C@@H]2C[C@H]1CN2c1nccc(Nc2cc3nc(-c4ccnc(C(C)(C)O)c4)sc3cn2)n1 [Example 121, 2-{4-[6-({2-[(1S,4S)-5-Methyl-2,5-diazabicyclo[2.2.1]heptan-2-yl]pyrimidin-4-yl}amino)-[1,3]thiazolo[5,4-c]pyridin-2-yl]pyridin-2-yl}propan-2-ol]
CN1C[C@@H]2C[C@H]1CN2c1nccc(Nc2cc3nc(-c4cccc(C(C)(C)O)c4)sc3cn2)n1 [Example 122, 2-{3-[6-({2-[(1S,4S)-5-Methyl-2,5-diazabicyclo[2.2.1]heptan-2-yl]pyrimidin-4-yl}amino)-[1,3]thiazolo[5,4-c]pyridin-2-yl]phenyl}propan-2-ol]
CN1C[C@@H]2C[C@H]1CN2c1cncc(Nc2cc3nc(-c4cc(N5CC[C@H](F)C5)ccn4)sc3cn2)n1 [Example 124, N-(2-{4-[(3S)-3-Fluoropyrrolidin-1-yl]pyridin-2-yl}-[1,3]thiazolo[5,4-c]pyridin-6-yl)-6-[(1S,4S)-5-methyl-2,5-diazabicyclo[2.2.1]heptan-2-yl]pyrazin-2-amine]
CN1C[C@@H]2C[C@H]1CN2c1cncc(Nc2cc3nc(-c4cc(N5CC[C@@H](F)C5)ccn4)sc3cn2)n1 [Example 125, N-(2-{4-[(3R)-3-Dluoropyrrolidin-1-yl]pyridin-2-yl}-[1,3]thiazolo[5,4-c]pyridin-6-yl)-6-[(1S,4S)-5-methyl-2,5-diazabicyclo[2.2.1]heptan-2-yl]pyrazin-2-amine]
CN1C[C@@H]2C[C@H]1CN2c1nccc(Nc2cc3nc(-c4cccc(C(=O)N5CCCC5)c4)sc3cn2)n1 [Example 126, 2-[(1S,4S)-5-Methyl-2,5-diazabicyclo[2.2.1]heptan-2-yl]-N-{2-[3-(pyrrolidine-1-carbonyl)phenyl]-[1,3]thiazolo[5,4-c]pyridin-6-yl}pyrimidin-4-amine]
CN(C)C(=O)c1cc(-c2nc3cc(Nc4ccnc(N5C[C@@H]6C[C@H]5CN6C)n4)ncc3s2)ccn1 [Example 127, N,N-Dimethyl-4-[6-({2-[(1S,4S)-5-methyl-2,5-diazabicyclo[2.2.1]heptan-2-yl]pyrimidin-4-yl}amino)-[1,3]thiazolo[5,4-c]pyridin-2-yl]pyridine-2-carboxamide]
Cc1ncccc1-c1nc2cc(Nc3cccc(N4C[C@@H]5C[C@H]4CN5C)n3)ncc2s1 [Example 138, 6-[(1S,4S)-5-Methyl-2,5-diazabicyclo[2.2.1]heptan-2-yl]-N-[2-(2-methylpyridin-3-yl)-[1,3]thiazolo[5,4-c]pyridin-6-yl]pyridin-2-amine]
CN1C[C@@H]2C[C@H]1CN2c1cncc(Nc2cc3nc(-c4cccc(N5CCCC5=O)c4)sc3cn2)n1 [Example 143, 1-{3-[6-({6-[(1S,4S)-5-Methyl-2,5-diazabicyclo[2.2.1]heptan-2-yl]pyrazin-2-yl}amino)-[1,3]thiazolo[5,4-c]pyridin-2-yl]phenyl}pyrrolidin-2-one]
CN1C[C@@H]2C[C@H]1CN2c1cncc(Nc2cc3nc(-c4ccncc4)sc3cn2)n1 [Example 146, 6-[(1S,4S)-5-Methyl-2,5-diazabicyclo[2.2.1]heptan-2-yl]-N-[2-(pyridin-4-yl)-[1,3]thiazolo[5,4-c]pyridin-6-yl]pyrazin-2-amine]
CN1C[C@@H]2C[C@H]1CN2c1cncc(Nc2cc3nc(-c4cccc(C(=O)N5CCCC5)c4)sc3cn2)n1 [Example 147, 6-[(1S,4S)-5-Methyl-2,5-diazabicyclo[2.2.1]heptan-2-yl]-N-{2-[3-(pyrrolidine-1-carbonyl)phenyl]-[1,3]thiazolo[5,4-c]pyridin-6-yl}pyrazin-2-amine]
Cc1cccnc1-c1nc2cc(Nc3ccnc(N4C[C@@H]5C[C@H]4CN5)n3)ncc2s1 [Example 149, 2-[(1S,4S)-2,5-Diazabicyclo[2.2.1]heptan-2-yl]-N-[2-(3-methylpyridin-2-yl)-[1,3]thiazolo[5,4-c]pyridin-6-yl]pyrimidin-4-amine]
Cc1cccnc1-c1nc2cc(Nc3cncc(N4C[C@@H](N)C[C@H]4CO)n3)ncc2s1 [Example 150, [(2S,4S)-4-Amino-1-(6-{[2-(3-methylpyridin-2-yl)-[1,3]thiazolo[5,4-c]pyridin-6-yl]amino}pyrazin-2-yl)pyrrolidin-2-yl]methanol]
CN1C[C@@H]2C[C@H]1CN2c1cncc(Nc2cc3nc(-c4ccnc(C(C)(C)O)c4)sc3cn2)n1 [Example 151, 2-{4-[6-({6-[(1S,4S)-5-Methyl-2,5-diazabicyclo[2.2.1]heptan-2-yl]pyrazin-2-yl}amino)-[1,3]thiazolo[5,4-c]pyridin-2-yl]pyridin-2-yl}propan-2-ol]
CN1C[C@@H]2C[C@H]1CN2c1cncc(Nc2cc3nc(-c4cccc(C(C)(C)O)c4)sc3cn2)n1 [Example 152, 2-{3-[6-({6-[(1S,4S)-5-Methyl-2,5-diazabicyclo[2.2.1]heptan-2-yl]pyrazin-2-yl}amino)-[1,3]thiazolo[5,4-c]pyridin-2-yl]phenyl}propan-2-ol]
Cc1cccnc1-c1nc2cc(Nc3cnc(C)c(N4C[C@@H]5C[C@H]4CN5C)n3)ncc2s1 [Example 154, 5-Methyl-6-[(1S,4S)-5-methyl-2,5-diazabicyclo[2.2.1]heptan-2-yl]-N-[2-(3-methylpyridin-2-yl)-[1,3]thiazolo[5,4-c]pyridin-6-yl]pyrazin-2-amine]
CN1C[C@@H]2C[C@H]1CN2c1cncc(Nc2cc3nc(-c4ncco4)sc3cn2)n1 [Example 156, 6-[(1S,4S)-5-Methyl-2,5-diazabicyclo[2.2.1]heptan-2-yl]-N-[2-(1,3-oxazol-2-yl)-[1,3]thiazolo[5,4-c]pyridin-6-yl]pyrazin-2-amine]
CN1C[C@@H]2C[C@H]1CN2c1nccc(Nc2cc3nc(-c4ncco4)sc3cn2)n1 [Example 157, 2-[(1S,4S)-5-Methyl-2,5-diazabicyclo[2.2.1]heptan-2-yl]-N-[2-(1,3-oxazol-2-yl)-[1,3]thiazolo[5,4-c]pyridin-6-yl]pyrimidin-4-amine]
Cc1cccnc1-c1nc2cc(Nc3ccnc(N4C[C@@H]5C[C@H]4CN5C)n3)ncc2s1 [Example 158, 2-[(1S,4S)-5-Methyl-2,5-diazabicyclo[2.2.1]heptan-2-yl]-N-[2-(3-methylpyridin-2-yl)-[1,3]thiazolo[5,4-c]pyridin-6-yl]pyrimidin-4-amine]
Cc1cc(Nc2cc3nc(-c4ncccc4C)sc3cn2)nc(O[C@H]2CCCNC2)c1 [Example 161, 4-Methyl-N-[2-(3-methylpyridin-2-yl)-[1,3]thiazolo[5,4-c]pyridin-6-yl]-6-[(3S)-piperidin-3-yloxy]pyridin-2-amine]
Cc1ccc(Nc2cc3nc(-c4ncccc4C)sc3cn2)nc1OC1CCNC1 (stereo not shown) [Example 162, 5-Methyl-N-[2-(3-methylpyridin-2-yl)-[1,3]thiazolo[5,4-c]pyridin-6-yl]-6-(pyrrolidin-3-yloxy)pyridin-2-amine]
